The test system of data set [1] is Mus musculus. The data set can be described thus: Analgesic activity in iv dosed ICR mouse assessed as reduction in acetic acid induced writhing administered for 15 mins followed by acetic acid injection and measured within 15 mins. Conditions: 0.5 h, time 30 min. The format is functional.
The species named for another data set is Rattus norvegicus. The data set can be described thus: Antiinflammatory activity in carrageenan-induced Sprague-Dawley rat assessed as paw withdrawal threshold measured after 2.5 hrs by paw pressure test. The format is functional.
In data set [2] the test system is Mus musculus. The experiment in a line: Analgesic activity in acetic acid induced ICR mouse assessed as average writhing times at 6.25 mg/kg, iv administered for 15 mins followed by acetic acid injection and measured within 15 mins (reference value: 26.1 +/- 16.3). The format is functional. Conditions: time 30 min, 0.5 h.
For data set [3], the system named is Mus musculus. The data set can be described thus: Analgesic activity in acetic acid induced ICR mouse assessed as average writhing times at 12.50 mg/kg, iv administered for 15 mins followed by acetic acid injection and measured within 15 mins (reference value: 26.1 +/- 16.3). Conditions: dose 12.5 mg/kg, time 30 min, 0.5 h. The format is functional. (In writhing tests, fewer writhes than in controls are read as antinociception.)

Data set [4] has as its system Mus musculus. The data set can be described thus: Analgesic activity in acetic acid induced ICR mouse assessed as average writhing times at 25 mg/kg, iv administered for 15 mins followed by acetic acid injection and measured within 15 mins (reference value: 26.1 +/- 16.3). It is filed as functional. The conditions noted are these: time 30 min, 0.5 h.
The test system of data set [5] is Mus musculus. The experiment in a line: Analgesic activity in acetic acid induced ICR mouse assessed as average writhing times at 3.13 mg/kg, iv administered for 15 mins followed by acetic acid injection and measured within 15 mins (reference value: 26.1 +/- 16.3). The format is functional. Conditions: time 30 min, 0.5 h.
In data set [6] the test system is Mus musculus. The data set can be described thus: Antinociceptive activity in acetic acid induced ICR mouse assessed as inhibition effect at 6.25 mg/kg, iv administered for 15 mins followed by acetic acid injection and measured within 15 mins. Conditions: 0.5 h, time 30 min. The format is functional.
For data set [7], the system named is Mus musculus. The experiment in a line: Antinociceptive activity in acetic acid induced ICR mouse assessed as inhibition effect at 12.50 mg/kg, iv administered for 15 mins followed by acetic acid injection and measured within 15 mins. It is filed as functional. Conditions: 0.5 h, time 30 min.
Data set [8] relates to Mus musculus. The experiment in a line: Antinociceptive activity in acetic acid induced ICR mouse assessed as inhibition effect at 25 mg/kg, iv administered for 15 mins followed by acetic acid injection and measured within 15 mins. The format is functional. Conditions: 0.5 h, time 30 min.
Data set [9] has as its system Mus musculus. The data set can be described thus: Antinociceptive activity in acetic acid induced ICR mouse assessed as inhibition effect at 3.13 mg/kg, iv administered for 15 mins followed by acetic acid injection and measured within 15 mins. Conditions: 0.5 h, time 30 min. It is filed as functional.
A short description of data set [10]: Aqueous solubility of the compound.
The test system of data set [11] is Mus musculus. The experiment in a line: Analgesic activity in acetic acid induced ICR mouse assessed as average writhing times at 50 mg/kg, iv administered for 15 mins followed by acetic acid injection and measured within 15 mins (reference value: 26.1 +/- 16.3). The conditions noted are these: time 30 min, 0.5 h. The format is functional.
Data set [12] has as its system Mus musculus. The data set can be described thus: Antinociceptive activity in acetic acid induced ICR mouse assessed as inhibition effect at 50 mg/kg, iv administered for 15 mins followed by acetic acid injection and measured within 15 mins. The format is functional. The conditions noted are these: 0.5 h, time 30 min.
Data set [13] can be described thus: Aqueous solubility of the compound at pH 7.8. It is filed as physicochemical.

In brackets after ≈: the same amount, converted by molar mass.

Usually ED50 stands for the dose that gives a 50% effect, or the effect in half of the subjects. By inhibition in vivo is commonly meant the share of the control response that was lost under treatment. The solubility is how much of the substance goes into solution per volume. For the compound `CC(C)Cc1ccc(C(C)C(=O)O)cc1` (stereo not drawn) [IBUPROFEN], the 50% effective dose (ED50) in the data set on Mus musculus [1] was found to be 5 mg/kg; in the data set listed under Rattus norvegicus it was 21 mg/kg. The Activity in the data set on Mus musculus [2] amounted to 6.1; in the data set on Mus musculus [3], 4; with Mus musculus [4], 3; with Mus musculus [5], 21. Moreover, in the data set with Mus musculus [6], the inhibition in vivo at 6.25 mg/kg was determined as 76.6%. Moreover, in the data set on Mus musculus [7], the inhibition in vivo at 12.5 mg/kg is 84.7%. For the same compound, the inhibition in vivo at 25 mg/kg in the data set with Mus musculus [8] was determined as 88.5%. Also, in the data set with Mus musculus [9], the inhibition in vivo at 3.13 mg/kg is 19.5%. Moreover, the solubility in [10] worked out at 21.9 µg/mL (≈ 106 µM).

As for `CCC(=O)[N-]S(=O)(=O)c1ccc(-c2c(-c3ccccc3)noc2C)cc1.[Na+]` [PARECOXIB SODIUM], the 50% effective dose (ED50) turned out to be 15.7 mg/kg with Mus musculus [1] and 22.7 mg/kg in the data set listed under Rattus norvegicus. Besides, the Activity in the data set on Mus musculus [2] was determined as 22.2; in the data set with Mus musculus [3], 13.7; in the data set on Mus musculus [4], 10.1; in the data set on Mus musculus [11] it was 2.4; in the data set with Mus musculus [5] it was 21. Besides, the inhibition in vivo at 6.25 mg/kg in the data set on Mus musculus [6] was 14.9%. Besides, in the data set with Mus musculus [7], the inhibition in vivo at 12.5 mg/kg came to 47.5%. The inhibition in vivo at 25 mg/kg in the data set with Mus musculus [8] came to 61.3%. Also, the inhibition in vivo at 50 mg/kg with Mus musculus [12] turned out to be 90.8%. The compound also had a solubility in [13] of 18000 µg/mL.

(Values after ChEMBL document CHEMBL5154819 (Eur J Med Chem, 2022).)
